From patent US20080096967A1, “Formulations for Injection of Catecholic Butanes, Including Ndga Compounds, Into Animals” (priority 2005, published 2008)

Columns and labels:
[1] = Stability of M4N formulations at 4° C. and on centrifugation; format: physicochemical
Procedure: All formulations withstand 4° C. for 24 hr and 5 min. centrifugation at 5000 rpm without forming visible precipitates. The formulation containing 50% PEG 300, 20% HP-β-CD, 12.5 mg/mL M4N stock solution withstands 4° C. for at least 4 months. Dilutions of the same stock made in 1:1 or 1:2 dilutions also withstand 4° C. for at least 4 months.

Beagle dogs = test: Intravenous infusion toxicity study (maximum tolerable dose, escalating doses) in Beagle dogs; format: in vivo
Procedure: The purpose of this study was to determine the maximum tolerable dose of tetra-O-methyl NDGA (M4N) when administered by intravenous infusion to male and female Beagle dogs, supplied by Convince Research Products (Cumberland, Va., U.S.A). Two Beagle dogs, one male and one female, about 6 to 9 months old at first dose, were administered the cyclodextrin vehicle containing 20% (w/v) HP-β-CD and 50% PEG 300, on Study Day (“SD”) 1, followed by escalating levels of M4N prepared in the cyclodextrin vehicle (i.e., the test articles). The preformed cyclodextrin vehicle and test articles were stored at room temperature. Sterile water, used as diluent, was obtained from Baxter Health Care Corp. (Deerfield, Mich., U.S.A) or Abbott Laboratories (North Chicago, Ill., U.S.A.) and stored at room temperature.
The test article, cyclodextrin vehicle and diluent were considered 100% pure for formulation purposes. Dose formulations were prepared on each day of dosing by adding the appropriate amount of test article or cyclodextrin vehicle into a glass container using a sterile syringe. For each dose, an equal amount of sterile water was added to the M4N formulation or cyclodextrin vehicle to form a 50:50 (v/v) dilution. No dilution was required for the 200 mg/kg dose. All formulations were mixed by gentle inversion to ensure that a proper solution was formed. Formulations were loaded into medication cassettes and stored at room temperature until needed.
M4N was administered at 25 mg/kg on SD 3, 50 mg/kg on SD 5, and 100 mg/kg on SD 8. Only the female received the full 100 mg/kg dose; due to mechanical malfunctions caused by precipitation in the infusion line, the male dog received approximately 72 mg/kg (i.e., 72%) of the intended dose. Two additional Beagle dogs were administered a 200 mg/kg dose; however, mechanical difficulties ensued and the male dog received approximately 180 mg/kg (90%) of the intended dose, whereas the amount the female received could not be determined.
Using aseptic surgical techniques, the animals were catheterized with an in-dwelling catheter inserted into the jugular vein, and were treated prophylactically with an analgesic and antibiotic on the day of surgery and with antibiotics and/or analgesics for 8 days following surgery.
Following completion of each intravenous infusion, 1 mL of sterile saline was administered as a slow bolus injection to flush the test material from the infusion line into the animal, followed by an injection of heparin-saline solution to fill the infusion line to maintain patency. The animals were observed. Cageside observation included observation for mortality, morbundity, general health, and signs of toxicity. […]

Sprague-Dawley rats = test: 8-Day IV infusion toxicity study in Sprague-Dawley rats; format: in vivo
Procedure: Escalating doses of 0, 100, 150, or 200 mg/kg M4N in 10% HP-β-CD in PEG 300 (6.25 mg/mL) were administered by IV infusion once every four days to male and female Sprague-Dawley rats (3/each sex) at 8 mL/kg/hr. […] […] One male rat was found dead on the first day dosage during administration of the vehicle and one female rat was found dead on day 5 of the study at the end of the infusion of 100 mg/kg of the test material. These deaths were not considered related to the test article because for one rat no test article (only vehicle) was administered and for the other rat, this was a single event with other rats surviving multiple days of dosing at 200 mg/kg/day.

[2] = M4N stability in 11-14 mg/mL PEG300/HP-β-CD solutions at room temperature (RP-HPLC); format: physicochemical; conditions: for Observed M4N: room temperature
Procedure: To support manufacturing specifications, this study examined the 24-hour room temperature stability of combinations of PEG300/HP-β-CD at varying M4N target concentrations. Stock samples of M4N stocks were prepared in 100% PEG 300 at drug concentrations of 33-56 mg/mL at 60° C. as follows.
M4N bulk drug was solubilized to concentrations of 33, 44, 48, 52, 55 and 56 mg/mL (w/w) in PEG 300 using the procedure set forth in Examples 13 and 16, following incubation of at least 2 hours at 60° C. Vigorous vortexing and mixing were necessary for complete solubilization of M4N above 44 mg/mL. The M4N stock solutions were filtered through a 0.45 μm SFCA filter and used within 30 minutes of preparation. Separately, a solution of 40% (w/v) HP-β-CD was prepared in sterile WFI and filtered. Combinations of the 40% HP-β-CD stock and the M4N/PEG 300 stocks were combined in 1.5 mL polypropylene microtubes.
The requisite amount of M4N stock was added to 40% HP-β-CD to yield the final concentrations of drug and excipients listed in Table 28. Samples were gently rotated (˜12 rpm) at room temperature. At 2 and 24 hours of incubation, samples were centrifuged 2 minutes at 13,000 rpm and 50 μL aliquots were removed for RP-HPLC analysis.

[3] = 200 mg/kg/day, continued daily dosing phase

COc1ccc(C[C@@H](C)[C@@H](C)Cc2ccc(OC)c(OC)c2)cc1OC [Formulation M4N, meso-1,4-bis(3,4-dimethoxyphenyl)-2,3-dimethylbutane]
withstand 4° C. ([1]; 1:1 or 1:2 dilutions of the 50% PEG 300, 20% HP-β-CD, 12.5 mg/mL M4N stock): at least 4 months
withstands 4° C. ([1]; 50% PEG 300, 20% HP-β-CD, 12.5 mg/mL M4N stock solution): at least 4 months
Individual Body Weights (Beagle dogs; Male dog 10567, SD13): 10.2 kg
gross pathology and microscopic changes (Beagle dogs; dog, in vivo): no test-article related gross pathology findings or microscopic changes
doses at which no treatment-related adverse effects were observed (Beagle dogs; dog, in vivo, iv): up to 200 mg/kg
mortality (Beagle dogs; escalating IV infusion doses 25 to 200 mg/kg in 20% HP-β-CD/50% PEG 300 vehicle): no effect
clinical observations: ptosis and hyperactivity (Sprague-Dawley rats; [3]): ptosis and hyperactivity occurred in one male and one female rat
clinical observations: tremors (Sprague-Dawley rats; [3]): tremors did occur in one male and one female rat
mortality (Sprague-Dawley rats; 100, 150 or 200 mg/kg M4N in 10% HP-β-CD in PEG 300 (6.25 mg/mL), IV infusion 8 mL/kg/hr): No obvious mortality related to M4N occurred
doses that appeared to be tolerated (Sprague-Dawley rats; for up to eight consecutive days): ≤ 200 mg/kg/day
body weight (Sprague-Dawley rats; male and female rats): gained weight throughout the study
Observed M4N ([2]; 11 mg/mL M4N, 20% PEG300, 32% HP-β-CD, t = 2 hours): 11.5 mg/mL
Observed M4N ([2]; 11 mg/mL M4N, 20% PEG300, 32% HP-β-CD, t = 24 hours): 11.4 mg/mL
Observed M4N ([2]; 11 mg/mL M4N, 25% PEG300, 30% HP-β-CD, t = 2 hours): 11.3 mg/mL
Observed M4N ([2]; 11 mg/mL M4N, 25% PEG300, 30% HP-β-CD, t = 24 hours): 11.3 mg/mL
Observed M4N ([2]; 11 mg/mL M4N, 33% PEG300, 27% HP-β-CD, t = 2 hours): 11.4 mg/mL
Observed M4N ([2]; 11 mg/mL M4N, 33% PEG300, 27% HP-β-CD, t = 24 hours): 11.3 mg/mL
Observed M4N ([2]; 12 mg/mL M4N, 25% PEG300, 30% HP-β-CD, t = 2 hours): 11.8 mg/mL
Observed M4N ([2]; 12 mg/mL M4N, 25% PEG300, 30% HP-β-CD, t = 24 hours): 11.6 mg/mL
Observed M4N ([2]; 13 mg/mL M4N, 25% PEG300, 30% HP-β-CD, t = 2 hours): 12.7 mg/mL
Observed M4N ([2]; 13 mg/mL M4N, 25% PEG300, 30% HP-β-CD, t = 24 hours): 12.7 mg/mL
Observed M4N ([2]; 14 mg/mL M4N, 25% PEG300, 30% HP-β-CD, t = 2 hours): 13.5 mg/mL
Observed M4N ([2]; 14 mg/mL M4N, 25% PEG300, 30% HP-β-CD, t = 24 hours): 13.5 mg/mL
stability ([2]; 11-14 mg/mL M4N, 25% PEG 300 and 30% HP-β-CD, 24 hours at room temperature): stable
